Literature values, collected in patent US7799817B2, “Compositions and methods for sleep regulation” (LifeScape BioSciences Inc, priority 2004, dated 2010).
Where two headings read alike, the source gives them in different places.

Assays:
[1] = test system: jet lag; conditions: for mean global jet lag score: 0=no jet lag, 100=extreme jet lag
[2] = test system: jet lag
[3] = adult human

## COc1ccc2[nH]cc(CCNC(C)=O)c2c1 [melatonin, N-acetyl-5-methoxytryptamine]
[1]; eastward flights, four trials combined, placebo 51
  mean global jet lag score: 31
[1]; eight of ten randomized, placebo-controlled trials
  jet lag after melatonin administration: less jet lag
[1]; westward flights, two RCTs, placebo 41
  mean global jet lag score: 22
[2]; 0.5 mg fast release versus 5 mg
  effectiveness of lower dose for symptoms of jet lag unrelated to sleep: almost as effective as the higher dose
[2]; 5 mg versus 0.5 mg fast release
  effect of higher dose on sleep quality and sleep latency: greater effect on sleep quality and sleep latency than the lower dose
[2]; slow release 2 mg versus 5 mg or 0.5 mg fast release
  effectiveness of slow release form: less effective than either 5 mg or 0.5 mg (fast release)
[3]
  half-life: approximately 45 minutes
